Patent US11345711B2, “8,9-dihydroimidazo[1,2-a]pyrimido[5,4-e]pyrimidin-5(6H)-ones” (IMPACT THERAPEUTICS (SHANGHAI), INC, priority 2016, dated 2022)
Read-outs that look alike come from different tables or passages of the source.

Key:
[1] = biological target: Wee1 (h) (Homo sapiens, UniProt P30291); test: Wee1 kinase (h) detection method, [γ-33P]-ATP filter assay; type: biochemical
Method: Determination of the inhibitory effect of 6-(2-chlorophenyl)-2-((4-(4-methylpiperazin-1-yl)phenyl)amino)-8,9-dihydroimidazo[1,2-a]pyrimido[5,4-e]pyrimidin-5(6H)-one and Analogs on the Enzyme Activity of Wee1 Kinase by Using the Wee1 Kinase (h) Detection Method
Then the stock solution of all compounds under test with 50× concentration in 100% DMSO was added to make the final concentration of 10/1/0.1/0.01 μM, and then mixed the mixture well. The reaction is initiated by the addition of the Mg/ATP mix. After incubation for 40 minutes at room temperature, the reaction is stopped by the addition of phosphoric acid to a concentration of 0.5%. […] Each compound sample is duplicated in duplicate. The negative control was lack of all the components of Wee1 enzyme, and the positive was addition of 30% phosphoric acid to terminate the reaction. The Wee1 inhibitor AZD1775 was detected at 10 μM at the same experiment condition.

[2] = tested on: LoVo cells; test: MTT based cell viability assay on LoVo cells; details: Homo sapiens, LoVo, 72 h, 3 d, read-out: IC50, growth inhibition of LoVo cells
Method: Determination of the cell growth inhibiting activity of 6-(2-chlorophenyl)-2-((4-(4-methylpiperazin-1-yl)phenyl)amino)-8,9-dihydroimidazo[1,2-a]pyrimido[5,4-e]pyrimidin-5(6H)-one and analogs on LoVo cells using a MTT based cell viability assay
(§1) The thawed LoVo cells were cultured and passaged to the third generation, and the growth state was good and the confluence was about 90%, which began to be used in the experiment. The LoVo cells were digested with trypsin, centrifuged at 800 rpm for 5 min, the supernatant was discarded, resuspended with fresh culture medium, and counted. 6000 Cells are seeded to each well of a 96-well plate. The cells are incubated at 37° C. in a 5% CO2 cell culture incubator overnight. The tested sample (including the tested compound and the reference compound AZD1775) was diluted continuously to 8 concentrations (the last concentration was negative control of DMSO) with a 1:3 and 1:10 dilution in DMSO respectively: 10 μM, 3.3 μM, 1 μM, 0.33 μM, 0.1 μM, 0.033 μM, 0.01 μM, 0 μM (the final concentration of DMSO was 1%). 5 μL of each concentration was added to 120 μL of culture medium (25 times diluted), and the mixture was shaken well. The overnight cells were taken and the culture medium was removed, 195 μL of fresh culture medium was added to each well, and 5 μL of diluted culture medium containing the corresponding concentration of the tested sample was added respectively, and the culture plate was then placed in the 5% CO2 cell culture incubator at 37° C. for 3 d. After removing the original solution and adding 100 μL of fresh serum-free DMEM culture medium containing MTT (0.5 mg/mL) per well, the culture was continued. The original solution was removed after 4 hrs and 100 μl DMSO was added to each well. The 96-well cell culture plates were shaken away from light for 10 min and readed in a multifunctional reader at 552/630/690 nm to give absorption values (OD values). The data were analyzed using a commercial graphic software (Graph Pad Prism 5.0) and the inhibitory activity of the compound on cell proliferation was plotted in terms of cell survival and compound concentration. The IC50 values were fitted by the S-shaped dose-response curve equation as follows: Y=100/(1+10^(Log C-Log IC50)), where C was the concentration of testing compounds.

[3] = tested on: NCI-H1299 cells; test: MTT based cell viability assay on NCI-H1299 cells; details: Homo sapiens, read-out: IC50, growth inhibition of NCI-H1299 cells
Method: Determination of the cell growth inhibiting activity of 6-(2-chlorophenyl)-2-((4-(4-methylpiperazin-1-yl)phenyl)amino)-8,9-dihydroimidazo[1,2-a]pyrimido[5,4-e]pyrimidin-5(6H)-one and analogs on NCI-H1299 cells using a MTT based cell viability assay
as §1, with “NCI-H1299” for “LoVo”, “group,” for “medium,”, “1000” for “6000”, “1‰).” for “1%).”, “C−Log” for “C-Log”

Chain of Wee1 (h) (P30291 whole entry): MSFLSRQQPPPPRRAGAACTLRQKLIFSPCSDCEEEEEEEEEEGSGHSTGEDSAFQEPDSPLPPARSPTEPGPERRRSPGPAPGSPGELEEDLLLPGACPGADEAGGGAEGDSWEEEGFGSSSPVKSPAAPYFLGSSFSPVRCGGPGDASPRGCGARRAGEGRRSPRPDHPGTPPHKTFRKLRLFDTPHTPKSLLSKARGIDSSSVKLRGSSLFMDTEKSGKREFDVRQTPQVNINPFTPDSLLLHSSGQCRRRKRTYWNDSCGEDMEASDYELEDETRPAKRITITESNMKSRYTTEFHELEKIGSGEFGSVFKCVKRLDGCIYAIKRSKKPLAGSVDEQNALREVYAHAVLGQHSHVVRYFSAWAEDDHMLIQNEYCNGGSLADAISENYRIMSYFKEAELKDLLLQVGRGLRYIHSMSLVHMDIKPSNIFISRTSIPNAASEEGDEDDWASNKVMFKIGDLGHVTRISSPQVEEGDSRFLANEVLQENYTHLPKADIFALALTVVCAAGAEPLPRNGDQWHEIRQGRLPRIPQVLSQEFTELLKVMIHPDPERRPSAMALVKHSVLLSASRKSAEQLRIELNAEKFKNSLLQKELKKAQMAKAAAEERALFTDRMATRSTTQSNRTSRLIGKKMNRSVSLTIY

Q: For `CN1CCN(c2ccc(Nc3ncc4c(n3)N3CCN=C3N(c3cc(Cl)ccc3Cl)C4=O)cc2)CC1` [Example 90, 6-(2,5-Dichlorophenyl)-2-((4-(4-methylpiperazin-1-yl)phenyl)amino)-8,9-dihydroimidazo[1,2-a]pyrimido[5,4-e]pyrimidin-5(6H)-one], which “Inh. (%) of Wee1 kinase enzyme activity” value ([1]; C 1 μm compound) is on record?
A: The value was 29%.

Q: What about the IC50 [2] of the same compound?
A: The IC50 was 1310 nM.

Q: What about the IC50 ([3]; NCI-H1299 cells) of the same compound?
A: Its IC50 is > 10000 nM.

Q: Which “Inh. (%) of Wee1 kinase enzyme activity” value ([1]; C 0.01 μm compound) does the source give for `Cc1cc(Nc2ncc3c(n2)N2CCN=C2N(c2c(Cl)cccc2Cl)C3=O)cc(Cl)c1N1CCN(C)CC1` [Example 151, 6-(2,6-Dichlorophenyl)-2-((3-chloro-5-methyl-4-(4-methylpiperazin-1-yl)phenyl)amino)-8,9-dihydroimidazo[1,2-a]pyrimido[5,4-e]pyrimidin-5(6H)-one] here?
A: The value was 42%.

Q: And the “Inh. (%) of Wee1 kinase enzyme activity” value ([1]; C 0.1 μm compound)?
A: The value was 98%.

Q: What about the “Inh. (%) of Wee1 kinase enzyme activity” value ([1]; C 1 μm compound) of the same compound?
A: The value was 97%.

Q: What about the IC50 [2] of the same compound?
A: The IC50 was 30.8 nM.

Q: And the IC50 ([3]; NCI-H1299, NCI-H1299 cells)?
A: Its IC50 is 175 nM.

Q: Which results are given for `CN1CCN(c2ccc(Nc3ncc4c(n3)N3CCN=C3N(c3cccc(F)c3Cl)C4=O)cc2)CC1` [Example 89, 6-(2-Chloro-3-fluorophenyl)-2-((4-(4-methylpiperazin-1-yl)phenyl)amino)-8,9-dihydroimidazo[1,2-a]pyrimido[5,4-e]pyrimidin-5(6H)-one]?
A: Inh. (%) of Wee1 kinase enzyme activity ([1]; C 1 μm compound): 89%; IC50 [2]: 220 nM; IC50 ([3]; NCI-H1299 cells): 957 nM

Q: What does the source list for `CN1CCN(c2ccc(Nc3ncc4c(n3)N3CCN=C3N(c3c(F)cccc3Cl)C4=O)cc2F)CC1` [Example 44, 6-(2-Chloro-6-fluorophenyl)-2-((3-fluoro-4-(4-methylpiperazin-1-yl)phenyl)amino)-8,9-dihydroimidazo[1,2-a]pyrimido[5,4-e]pyrimidin-5(6H)-one]?
A: Inh. (%) of Wee1 kinase enzyme activity ([1]; C 0.01 μm compound): 23%; Inh. (%) of Wee1 kinase enzyme activity ([1]; C 0.1 μm compound): 75%; Inh. (%) of Wee1 kinase enzyme activity ([1]; C 1 μm compound): 93%; IC50 [2]: 37.1 nM; IC50 ([3]; NCI-H1299, NCI-H1299 cells): 597 nM

Q: Which results are given for `Cc1cc(Nc2ncc3c(n2)N2CCN=C2N(c2c(F)cccc2Cl)C3=O)cc(C(F)(F)F)c1N1CCN(C)CC1` [Example 128, 6-(2-Chloro-6-fluorophenyl)-2-((3-methyl-4-(4-methylpiperazin-1-yl)-5-(trifluoromethyl)phenyl)amino)-8,9-dihydroimidazo[1,2-a]pyrimido[5,4-e]pyrimidin-5(6H)-one]?
A: Inh. (%) of Wee1 kinase enzyme activity ([1]; C 0.01 μm compound): 8%; Inh. (%) of Wee1 kinase enzyme activity ([1]; C 0.1 μm compound): 61%; Inh. (%) of Wee1 kinase enzyme activity ([1]; C 1 μm compound): 89%; IC50 [2]: 68.8 nM; IC50 ([3]; NCI-H1299, NCI-H1299 cells): 306 nM

Q: Which results are given for `Cc1cccc(Cl)c1N1C(=O)c2cnc(Nc3ccc(N4CCN(C)CC4)c(Cl)c3)nc2N2CCN=C21` [Example 171, 6-(2-Chloro-6-methylphenyl)-2-((3-chloro-4-(4-methylpiperazin-1-yl)phenyl)amino)-8,9-dihydroimidazo[1,2-a]pyrimido[5,4-e]pyrimidin-5(6H)-one]?
A: Inh. (%) of Wee1 kinase enzyme activity ([1]; C 0.01 μm compound): 16%; Inh. (%) of Wee1 kinase enzyme activity ([1]; C 0.1 μm compound): 59%; Inh. (%) of Wee1 kinase enzyme activity ([1]; C 1 μm compound): 95%; IC50 [2]: 228 nM; IC50 ([3]; NCI-H1299, NCI-H1299 cells): 442 nM

Q: Which “Inh. (%) of Wee1 kinase enzyme activity” value ([1]; C 0.01 μm compound) does the source give for `CN(C)C1CCN(c2ccc(Nc3ncc4c(n3)N3CCN=C3N(c3c(F)cccc3Cl)C4=O)cc2Br)CC1` [Example 118, 6-(2-Chloro-6-fluorophenyl)-2-((3-bromo-4-(4-(dimethylamino)piperidin-1-yl)phenyl)amino)-8,9-dihydroimidazo[1,2-a]pyrimido[5,4-e]pyrimidin-5(6H)-one] here?
A: Its value is 25%.

Q: What about the “Inh. (%) of Wee1 kinase enzyme activity” value ([1]; C 0.1 μm compound) of the same compound?
A: Its value is 82%.

Q: What about the “Inh. (%) of Wee1 kinase enzyme activity” value ([1]; C 1 μm compound) of the same compound?
A: The value was 96%.

Q: And the IC50 [2]?
A: Its IC50 is 81.1 nM.

Q: And the IC50 ([3]; NCI-H1299, NCI-H1299 cells)?
A: The IC50 was 96.4 nM.

Q: For `COc1cc(Nc2ncc3c(n2)N2CCN=C2N(c2c(F)cccc2Cl)C3=O)cc(C)c1N1CCN(C)CC1` [Example 129, 6-(2-Chloro-6-fluorophenyl)-2-((3-methoxy-5-methyl-4-(4-methylpiperazin-1-yl)phenyl)amino)-8,9-dihydroimidazo[1,2-a]pyrimido[5,4-e]pyrimidin-5(6H)-one], which “Inh. (%) of Wee1 kinase enzyme activity” value ([1]; C 0.01 μm compound) is on record?
A: Its value is 26%.

Q: And the “Inh. (%) of Wee1 kinase enzyme activity” value ([1]; C 0.1 μm compound)?
A: The value was 73%.

Q: And the “Inh. (%) of Wee1 kinase enzyme activity” value ([1]; C 1 μm compound)?
A: The value was 93%.

Q: What about the IC50 [2] of the same compound?
A: The IC50 was 70.3 nM.

Q: And the IC50 ([3]; NCI-H1299, NCI-H1299 cells)?
A: The IC50 was 78.2 nM.

Q: For `Cc1cc(N2CCN(C)CC2)ccc1Nc1ncc2c(n1)N1CCN=C1N(c1c(F)cccc1Cl)C2=O` [Example 42, 6-(2-Chloro-6-fluorophenyl)-2-((2-methyl-4-(4-methylpiperazin-1-yl)phenyl)amino)-8,9-dihydroimidazo[1,2-a]pyrimido[5,4-e]pyrimidin-5(6H)-one], which “Inh. (%) of Wee1 kinase enzyme activity” value ([1]; C 1 μm compound) is on record?
A: The value was 19%.

Q: And the IC50 [2]?
A: The IC50 was > 100000 nM.

Q: And the IC50 ([3]; NCI-H1299 cells)?
A: Its IC50 is > 10000 nM.

Q: With `CN1CCN(c2ccc(Nc3ncc4c(n3)N3CCN=C3N(c3c(F)cccc3Cl)C4=O)cc2[N+](=O)[O-])CC1` [Example 55, 6-(2-Chloro-6-fluorophenyl)-2-((4-(4-methylpiperazin-1-yl)-3-nitrophenyl)amino)-8,9-dihydroimidazo[1,2-a]pyrimido[5,4-e]pyrimidin-5(6H)-one] as the compound, how does the “Inh. (%) of Wee1 kinase enzyme activity” value ([1]; C 1 μm compound) read?
A: Its value is 12%.

Q: What about the IC50 [2] of the same compound?
A: Its IC50 is > 100000 nM.

Q: What about the IC50 ([3]; NCI-H1299 cells) of the same compound?
A: The IC50 was > 10000 nM.

Q: With `Cc1cccc(Cl)c1N1C(=O)c2cnc(Nc3cc(Cl)c(N4CCN(C)CC4)c(Cl)c3)nc2N2CCN=C21` [Example 172, 6-(2-Chloro-6-methylphenyl)-2-((3,5-dichloro-4-(4-methylpiperazin-1-yl)phenyl)amino)-8,9-dihydroimidazo[1,2-a]pyrimido[5,4-e]pyrimidin-5(6H)-one] as the compound, how does the “Inh. (%) of Wee1 kinase enzyme activity” value ([1]; C 0.01 μm compound) read?
A: The value was 12%.

Q: And the “Inh. (%) of Wee1 kinase enzyme activity” value ([1]; C 0.1 μm compound)?
A: Its value is 60%.

Q: What about the “Inh. (%) of Wee1 kinase enzyme activity” value ([1]; C 1 μm compound) of the same compound?
A: Its value is 91%.

Q: And the IC50 [2]?
A: The IC50 was 117 nM.

Q: And the IC50 ([3]; NCI-H1299, NCI-H1299 cells)?
A: The IC50 was 362 nM.

Q: Which “Inh. (%) of Wee1 kinase enzyme activity” value ([1]; C 0.01 μm compound) does the source give for `CC(C)N1CCN(c2ccc(Nc3ncc4c(n3)N3CCN=C3N(c3c(F)cccc3Cl)C4=O)cc2)CC1` [Example 6, 6-(2-Chloro-6-fluorophenyl)-2-((4-(4-isopropylpiperazin-1-yl)phenyl)amino)-8,9-dihydroimidazo[1,2-a]pyrimido[5,4-e]pyrimidin-5(6H)-one] here?
A: Its value is 33%.

Q: What about the “Inh. (%) of Wee1 kinase enzyme activity” value ([1]; C 0.1 μm compound) of the same compound?
A: The value was 89%.

Q: And the “Inh. (%) of Wee1 kinase enzyme activity” value ([1]; C 1 μm compound)?
A: Its value is 98%.

Q: What about the IC50 [2] of the same compound?
A: The IC50 was 339 nM.

Q: What about the IC50 ([3]; NCI-H1299 cells) of the same compound?
A: The IC50 was 461 nM.
